Test results as given in patent publication US20110230472A1, “RING-FUSED AZOLE DERIVATIVE HAVING PI3K-INHIBITING ACTIVITY” (Shionogi & Co., Ltd., priority 2008, published 2011).

Key:
[1] = test system: AKT phosphorylation in human monocyte-like cell line THP-1; experiment: AKT phosphorylation inhibitory activity in MCP-1-stimulated THP-1 cells (ELISA); format: cell-based; conditions: 1 μmol/L solution of each compound, MCP-1 stimulation, read-out: AKT phosphorylation inhibition ratio
Method: (1) The AKT phosphorylation inhibitory activity of a compound was evaluated according to the following procedure. (2) Human monocyte-like cell line THP-1 was washed with RPMI-1640 media, incubated in the presence of 5% CO2 at 37° C. for 3 hours, washed with Hank's balanced salt solution (HBSS), adjusted to a cell concentration of 6.6×10^6/mL, and then used in an experiment. (3) 30 μL of the cell suspension and 60 μL of each compound solution containing 0.2% DMSO/HBSS were mixed and then preincubated at 37° C. for 5 minutes. 30 μL of HBSS containing 4 μg/mL of MCP-1 was added thereto and then incubated for 30 seconds at 37° C. (4) 30 μl of a cell lysate (20 mmol/L Tris-HCl (pH 7.5), 150 mmol/L NaCl, 1 mmol/L Na2EDTA, 1 mmol/L EGTA, 1% Triton, 2.5 mmol/L sodium pyrophosphate, 1 mmol/L β-glycerophosphate, 1 mmol/L Na3VO4, 1 μg/ml leupeptin, 50 nmol/L APMSF) was added thereto to lyse cells. (5) The amount of AKT phosphorylation in the cell lysate was measured by ELISA method. (6) Anti-phospho-Akt (Ser473) antibodies (clone 193H12, derived from a rabbit) were immobilized onto the solid phase of a micro well plate. 100 μL of the prepared cell lysate was added to the micro well plate, incubated for 2 hours at 37° C., and then washed four times with Phosphate Buffered Saline containing 0.05% Tween-20. (7) An anti-AKT1 antibody (clone 2H10, derived from a mouse) was added thereto, incubated for 1 hour at 37° C., washed similarly, and then reacted with an HRP-labeled anti-mouse IgG antibody. (8) After incubating at 37° C. for 30 minutes and then washing similarly, 100 μL of TMB (3,3′,5,5″-tetramethylbenzidine) was added thereto, followed by reacting at room temperature for 30 minutes. (9) 100 μL of 1 mol/L sulfuric acid was added to quench the color reaction and then the absorbance at 450 nm was measured. (10) A series of diluted cell lysates of a positive control (a sample in the absence of a compound) were used to prepare a calibration curve, the amount of AKT phosphorylation in a sample in the absence of MCP-1 was defined as 0% activity to calculate an inhibition ratio. The measurement was performed for a 1 μmol/L solution of each compound.

Solubility test = format: physicochemical; conditions: kinetic from dmso stock; artificial intestinal juice pH 6.8, 1% DMSO, 25° C. for 16 hours
Method: The solubility of a compound was determined under a condition in which 1% DMSO was added. 10 mmol/L compound solution was prepared using DMSO, and then 6 μL of the compound solution was added to 594 μL of artificial intestinal juice in pH 6.8 (to 250 mL of 0.2 mol/L potassium dihydrogen phosphate reagent solution was added 118 mL of 0.2 mol/L NaOH reagent solution and water to provide a final volume of 1000 mL). After standing at 25° C. for 16 hours, the mixed solution was filtered with suction. The filtrate was diluted twice with methanol/water (1/1), and then a concentration in the filtration was measured with HPLC or LC/MS/MS by the absolute calibration method.

PI-3 kinase γ [2] = biological target: T1, PI-3 kinase γ (Homo sapiens, UniProt P48736); experiment: PI3Kγ inhibitory activity, PI3-kinase HTRF assay (inhibition ratio); format: biochemical; conditions: 0.5 h; for inhibition at 50 µM: compound at 50 μM
In short: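 PI3Kγ preincubated 10 min with compound and PIP2 substrate (MgCl2, DTT), then ATP added for 30 min at room temperature. PIP3 detected by HTRF (665/620 nm ratio) after 18 h. Inhibition ratio at 50 or 10 μmol/L, normalised to no-compound and no-enzyme controls.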

Metabolic stability test = format: in vitro ADME; conditions: human liver microsome 0.5 mg protein/mL, 1 mmol/L NADPH, 37° C.
Method: After a subject compound was reacted for a certain time using a pooled human liver microsome commercially available, a reacted sample and an unreacted sample are compared to calculate a survival ratio, and then the degree of metabolism in the liver was evaluated.
0.2 mL of a buffer solution (50 mmol/L of Tris-HCl in pH 7.4, 150 mmol/L of potassium chloride, and 10 mmol/L of magnesium chloride) containing a human liver microsome of 0.5 mg protein/mL was reacted in the presence of 1 mmol/L NADPH at 37° C. for 0 or 30 minutes (oxidative reaction). After reacting, 50 μL of the reaction solution was added to 100 μL of a solution of methanol/acetonitrile (1/1 (v/v)), mixed, and then centrifuged at 3000 rpm for 15 minutes. The test compound in the supernatant was quantitated with LC/MS/MS. The amount of the compound at a reaction time of 0 minute was defined as 100% and, based on that, the percentage of the test compound remained after reacting for 30 minutes was calculated.

PI-3 kinase γ [3] = biological target: T1, PI-3 kinase γ; experiment: PI3Kγ inhibitory activity (Ki value), HTRF; format: biochemical; conditions: Ki=IC50/(1+10 μM ATP/Km)
Method: The PI3Kγ inhibitory activity (Ki value) of a compound was evaluated according to the following procedure:
5 μL of a compound solution containing 10% DMSO and 200 μmol/L of a compound was changed to 5 μL of a compound solution containing 10% DMSO and either 200, 64, 20, 6.4, 2, 0.64, or 0.20 μmol/L of the compound (optionally, this is diluted to a lower concentration). Using a method similar to the method for measuring PI3Kγ inhibitory activity, inhibition ratios were measured in the presence of the compound at 50, 16, 5, 1.6, 0.5, 0.16, and 0.05 μmol/L (optionally, a lower concentration). Then an IC50 value was calculated by a logistic approximation method or the linear regression method using two concentrations that across 50% inhibition. Separately, the ATP concentration in the reaction solution (40 μmol/L ATP, 10 mmol/L MgCl2, 5 mmol/L DTT) at the time of the start of a reaction in the absence of the compound was changed to 80, 40, 20, 10, 5, 2.5, 1.25, or 0.625 μmol/L. Then, HTRF ratios were measured by a similar method. The value obtained by subtracting the HTRF ratio at each ATP concentration from the HTRF ratio in the absence of PI-3 kinase γ was defined as the value obtained by multiplying reaction rate (v) at each ATP concentration with a constant. The Michaelis-Menten constant Km was then calculated by the Lineweaver-Burk plot method. The Ki value of a compound was calculated by the following formula.
Ki=IC50 value/(1+10 μM (test ATP concentration)/Km (μM))
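For percentage of the test compound remained after reacting for 30 minutes in this document: 100% equals the compound amount at 0 min reaction.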

T1 sequence (P48736 whole entry): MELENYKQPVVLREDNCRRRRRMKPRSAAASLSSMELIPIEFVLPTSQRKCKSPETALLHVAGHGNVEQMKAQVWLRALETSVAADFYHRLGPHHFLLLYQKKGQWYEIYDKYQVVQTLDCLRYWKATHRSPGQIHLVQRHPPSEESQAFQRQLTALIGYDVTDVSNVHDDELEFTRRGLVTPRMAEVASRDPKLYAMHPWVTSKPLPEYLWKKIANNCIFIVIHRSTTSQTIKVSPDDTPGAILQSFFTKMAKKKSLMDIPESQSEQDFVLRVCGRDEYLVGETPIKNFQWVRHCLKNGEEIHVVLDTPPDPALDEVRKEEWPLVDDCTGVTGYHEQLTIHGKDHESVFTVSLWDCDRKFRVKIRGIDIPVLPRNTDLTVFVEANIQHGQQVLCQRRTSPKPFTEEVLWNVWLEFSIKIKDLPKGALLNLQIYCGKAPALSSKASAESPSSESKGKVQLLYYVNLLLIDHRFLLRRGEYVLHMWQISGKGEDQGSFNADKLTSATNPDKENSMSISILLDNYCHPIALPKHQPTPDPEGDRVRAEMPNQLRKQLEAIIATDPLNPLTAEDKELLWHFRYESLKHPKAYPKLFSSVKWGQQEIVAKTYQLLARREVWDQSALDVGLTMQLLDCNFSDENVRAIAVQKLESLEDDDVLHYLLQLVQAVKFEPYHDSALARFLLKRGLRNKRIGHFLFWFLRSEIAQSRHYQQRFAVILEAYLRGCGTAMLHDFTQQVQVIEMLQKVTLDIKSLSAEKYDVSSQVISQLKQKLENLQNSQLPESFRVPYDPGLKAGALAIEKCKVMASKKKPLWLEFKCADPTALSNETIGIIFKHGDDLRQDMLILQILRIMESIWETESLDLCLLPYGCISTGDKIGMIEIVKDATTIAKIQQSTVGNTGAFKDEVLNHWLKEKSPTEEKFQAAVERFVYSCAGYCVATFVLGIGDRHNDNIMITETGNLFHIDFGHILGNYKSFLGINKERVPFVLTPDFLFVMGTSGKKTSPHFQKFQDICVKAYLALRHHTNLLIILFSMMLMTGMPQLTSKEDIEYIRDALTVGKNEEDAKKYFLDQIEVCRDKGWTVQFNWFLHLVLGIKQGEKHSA

Structure (SMILES)	solubility at 16 h (Solubility test) [µM]	inhibition at 50 µM (PI-3 kinase γ [2]; PI3Kγ) [%]	percentage of the test compound remained after reacting for 30 minutes (Metabolic stability test) [%]	Ki (PI-3 kinase γ [3]) [nM]	inhibition at 10 µM (PI-3 kinase γ [2]; PI3Kγ, compound at 10 μM) [%]	inhibition at 10 µM (PI-3 kinase γ [2]; compound at 10 μmol/L) [%]	inhibition [1] [%]
CCOC(=O)CNC(=O)Nc1nc2c(s1)CN(c1cc(OC)nc(OC)n1)CC2 [Compound I-202]	–	≥ 95	–	49	–	–	> 99.5
COc1cc(N2CCc3nc(NC(C)=O)sc3C2)nc(OC)n1 [Compound I-214]	–	≥ 95	98.9	–	–	–	> 99.5
COc1cc(N2CCc3nc(NC(=O)NCCC(=O)NC(C)(C)C)sc3C2)nc(OC)n1 [Compound I-265]	–	–	–	42	≥ 95	–	> 99.5
COC(=O)[C@H](CC(=O)OC(C)(C)C)NC(=O)Nc1nc2c(s1)CN(c1cc(OC)nc(OC)n1)CC2 [Compound I-277]	–	–	–	36	≥ 95	–	–
COc1cc(N2CCc3nc(NC(=O)Nc4ccon4)sc3C2)nc(OC)n1 [Compound I-303]	–	–	87.3	45	–	94	–
COc1cc(N2CCc3nc(NC(=O)NCCC(=O)N4CCCC4)sc3C2)nc(OC)n1 [Compound I-308]	–	–	92.2	–	–	≥ 95	98.4
COc1cc(N2CCc3nc(NC(=O)NCCC(=O)NC(C)C)sc3C2)nc(OC)n1 [Compound I-309]	> 50	–	93.1	–	–	≥ 95	92
COc1cc(N2CCc3nc(NC(=O)NCCC(=O)N(C)C(C)C)sc3C2)nc(OC)n1 [Compound I-310]	–	–	–	43	–	≥ 95	> 99.5
COc1cc(N2CCc3nc(NC(=O)NCCC(=O)N4CCCC4(C)C)sc3C2)nc(OC)n1 [Compound I-318]	> 50	–	–	45	–	≥ 95	> 99.5
CN1CCc2cc(N3CCn4nc(NC(=O)c5cnc(NC(=O)OC(C)(C)C)s5)cc43)ccc2C1=O [Compound I-375]	–	–	–	23	–	≥ 95	–
CNC(=O)Nc1nc2c(s1)CN(c1cncc(OC)n1)CC2 [Compound I-378]	> 50	–	–	–	–	≥ 95	> 99.5

More lines, main results first:

solubility at 16 h (Solubility test) [µM]	inhibition at 50 µM (PI-3 kinase γ [2]; PI3Kγ) [%]	percentage of the test compound remained after reacting for 30 minutes (Metabolic stability test) [%]	Ki (PI-3 kinase γ [3]) [nM]	inhibition at 10 µM (PI-3 kinase γ [2]; PI3Kγ, compound at 10 μM) [%]	inhibition at 10 µM (PI-3 kinase γ [2]; compound at 10 μmol/L) [%]	Structure (SMILES)	inhibition [1] [%]
> 50	≥ 95	–	–	–	–	CNC(=O)Nc1cc2n(n1)CCN2c1ccc2ncccc2c1 [Compound I-177]	> 99.5
–	≥ 95	90.5	–	–	–	CNC(=O)Nc1cc2n(n1)CCN2c1ccc2cnccc2c1 [Compound I-190]	> 99.5
> 50	94	–	–	–	–	CC(=O)Nc1cc2n(n1)CCN2c1cccc(Cl)c1 [Compound I-198]	97.3
–	–	–	40	≥ 95	–	CC(=O)Nc1cc2n(n1)CCN2c1ccc2cnccc2c1 [Compound I-284]	> 99.5
> 50	–	94.9	–	≥ 95	–	CC(=O)Nc1cc2n(n1)CCN2c1ccc2c(c1)CCN(C)C2=O [Compound I-287]	> 99.5
–	–	–	43	–	≥ 95	CC(=O)Nc1cc2n(n1)CCN2c1ccc2c(c1)CCNC2=O [Compound I-292]	–
–	–	–	–	–	84	CN1CCc2cc(N3CCn4nc(NC(=O)c5cccs5)cc43)ccc2C1=O [Compound I-331]	93
–	–	87.2	–	–	≥ 95	CN1CCc2cc(N3CCn4nc(NC(=O)c5ccsc5)cc43)ccc2C1=O [Compound I-332]	96
> 50	–	–	–	–	≥ 95	CN1CCc2cc(N3CCn4nc(NC(=O)c5cncs5)cc43)ccc2C1=O [Compound I-341]	97.8
> 50	–	94.5	–	–	≥ 95	CN1CCc2cc(N3CCn4nc(NC(=O)c5cnco5)cc43)ccc2C1=O [Compound I-348]	> 99.5
–	–	–	32	–	≥ 95	CN1CCc2cc(N3CCn4nc(NC(=O)c5cnc(N)s5)cc43)ccc2C1=O [Compound I-380]	–
–	–	–	49	–	≥ 95	COC(=O)Nc1cc[nH]c1C(=O)Nc1cc2n(n1)CCN2c1ccc2c(c1)CCN(C)C2=O [Compound I-398]	–
–	–	–	34	–	≥ 95	CN1CCc2cc(N3CCn4nc(NC(=O)c5ccc(C(=O)NCC(=O)O)s5)cc43)ccc2C1=O [Compound I-415]	–
